The test system of assay [1] is HT29 cell line (colorectal adenocarcinoma from human). The assay is classed as cell-based. The conditions noted are these: read-out: IC50 [µM] against HT29.
Assay [2] relates to A549 cell line (lung carcinoma from human). Format: cell-based. The conditions noted are these: read-out: IC50 [µM] against A549.
For assay [3], the system named is EAhy926 cell line (the human umbilical vein, somatic cell hybrid). Format: cell-based. The conditions noted are these: read-out: IC50 [µM] against EA.hy9263.
Assay [4] has as its target hyaluronidase from bovine testes Type I-S (Bos taurus, UniProt Q2YDK3). The assay is classed as biochemical. The conditions noted are these: read-out: IC50 (µM) hyaluronidase inhibition.

What is called IC50 is the concentration at which inhibition is half-maximal.

Chain of hyaluronidase from bovine testes Type I-S (Q2YDK3 36-553 limits assumed): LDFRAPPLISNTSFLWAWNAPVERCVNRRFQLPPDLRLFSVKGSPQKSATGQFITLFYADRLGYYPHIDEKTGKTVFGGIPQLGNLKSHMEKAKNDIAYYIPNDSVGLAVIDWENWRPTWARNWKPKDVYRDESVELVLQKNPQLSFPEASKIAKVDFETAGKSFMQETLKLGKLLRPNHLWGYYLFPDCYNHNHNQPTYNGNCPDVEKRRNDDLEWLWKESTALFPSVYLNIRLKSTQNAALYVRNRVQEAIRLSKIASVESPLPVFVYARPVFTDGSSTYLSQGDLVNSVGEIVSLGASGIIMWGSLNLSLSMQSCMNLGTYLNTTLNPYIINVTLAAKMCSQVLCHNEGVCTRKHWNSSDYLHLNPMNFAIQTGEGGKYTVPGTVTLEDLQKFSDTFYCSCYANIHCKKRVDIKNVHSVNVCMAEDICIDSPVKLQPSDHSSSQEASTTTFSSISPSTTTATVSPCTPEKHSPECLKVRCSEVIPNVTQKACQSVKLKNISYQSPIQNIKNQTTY

Regarding `O=C(NCCNc1c2c(nc3ccccc13)CCCC2)c1ccccc1F` [Compound 1], the values for the IC50 in assay [1] and in assay [2] were 68.4 µM and 106 µM, respectively.
For `O=C(NCCCNc1c2c(nc3ccccc13)CCCC2)c1ccccc1F` [Compound 2] the same measures were 50.2 µM and 148 µM.
The matching figures for `O=C(NCCCNc1c2c(nc3ccccc13)CCCC2)c1cccc(F)c1` [Compound 5]: 44 µM and 118 µM.
For `COc1cc([C@@H]2c3cc4c(cc3[C@@H](O[C@@H]3O[C@@H]5CO[C@@H](C)O[C@H]5[C@H](O)[C@H]3O)[C@H]3COC(=O)[C@H]23)OCO4)cc(OC)c1O` [Compound C1, Etoposide], the 50% inhibitory concentration (IC50) in assay [3] amounted to 155 µM; in assay [1], 654 µM; in assay [2], 451 µM.
In the case of `O=c1[nH]cc(F)c(=O)[nH]1` [Compound C2, 5-fluorouracil], the IC50 is above 1800 µM in assay [3], 1630 µM in assay [1] and above 1800 µM in assay [2].
Take heparin [Compound C3]: in assay [4], the IC50 turned out to be 56.4 µM.

Values taken from article PMC7324419 (Human Cell, 2020).
